Data published in the supplement of paper PMC11451515.

Test system: P12-Ichikawa
Assay: cell viability relative to DMSO control; higher = less cytotoxic
Conditions: 48 h
In short: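 NOMO1 or SEM (500 cells/well) or P12-Ichikawa (1000 cells/well) leukemia cells were adapted for at least four passages in each medium. They were seeded in 1536-well plates (5 μl) and pin-dosed with library compounds in DMSO over an 11-point threefold series, 47 μM to 0.79 nM. CellTiter-Glo One luminescence was read after 48 h at 37°C. Viability is the per-plate percentage relative to DMSO wells, with cell-free wells as background.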

[1] = HPLM + 10% dialyzed FBS, 0.000781 µM
[2] = HPLM + 10% dialyzed FBS, 0.00234 µM
[3] = HPLM + 10% dialyzed FBS, 0.00702 µM
[4] = HPLM + 10% dialyzed FBS, 0.0211 µM
[5] = HPLM + 10% dialyzed FBS, 0.0632 µM
[6] = HPLM + 10% dialyzed FBS, 0.19 µM
[7] = HPLM + 10% dialyzed FBS, 0.569 µM
[8] = HPLM + 10% dialyzed FBS, 1.71 µM
[9] = HPLM + 10% dialyzed FBS, 5.12 µM
[10] = HPLM + 10% dialyzed FBS, 15.4 µM
[11] = HPLM + 10% dialyzed FBS, 46.1 µM
[12] = RPMI 5 mM glucose + 10% FBS, 0.000781 µM
[13] = RPMI 5 mM glucose + 10% FBS, 0.00234 µM
[14] = RPMI 5 mM glucose + 10% FBS, 0.00702 µM
[15] = RPMI 5 mM glucose + 10% FBS, 0.0211 µM
[16] = RPMI 5 mM glucose + 10% FBS, 0.0632 µM
[17] = RPMI 5 mM glucose + 10% FBS, 0.19 µM
[18] = RPMI 5 mM glucose + 10% FBS, 0.569 µM
[19] = RPMI 5 mM glucose + 10% FBS, 1.71 µM
[20] = RPMI 5 mM glucose + 10% FBS, 5.12 µM
[21] = RPMI 5 mM glucose + 10% FBS, 15.4 µM
[22] = RPMI 5 mM glucose + 10% FBS, 46.1 µM
[23] = RPMI 5 mM glucose + 10% dialyzed FBS, 0.000781 µM
[24] = RPMI 5 mM glucose + 10% dialyzed FBS, 0.00234 µM
[25] = RPMI 5 mM glucose + 10% dialyzed FBS, 0.00702 µM
[26] = RPMI 5 mM glucose + 10% dialyzed FBS, 0.0211 µM
[27] = RPMI 5 mM glucose + 10% dialyzed FBS, 0.0632 µM
[28] = RPMI 5 mM glucose + 10% dialyzed FBS, 0.19 µM
[29] = RPMI 5 mM glucose + 10% dialyzed FBS, 0.569 µM
[30] = RPMI 5 mM glucose + 10% dialyzed FBS, 1.71 µM
[31] = RPMI 5 mM glucose + 10% dialyzed FBS, 5.12 µM
[32] = RPMI 5 mM glucose + 10% dialyzed FBS, 15.4 µM
[33] = RPMI 5 mM glucose + 10% dialyzed FBS, 46.1 µM

Compound	cell viability [1] [%]	cell viability [2] [%]	cell viability [3] [%]	cell viability [4] [%]	cell viability [5] [%]	cell viability [6] [%]	cell viability [7] [%]	cell viability [8] [%]	cell viability [9] [%]	cell viability [10] [%]	cell viability [11] [%]	cell viability [12] [%]	cell viability [13] [%]	cell viability [14] [%]	cell viability [15] [%]	cell viability [16] [%]	cell viability [17] [%]	cell viability [18] [%]	cell viability [19] [%]	cell viability [20] [%]	cell viability [21] [%]	cell viability [22] [%]	cell viability [23] [%]	cell viability [24] [%]	cell viability [25] [%]	cell viability [26] [%]	cell viability [27] [%]	cell viability [28] [%]	cell viability [29] [%]	cell viability [30] [%]	cell viability [31] [%]	cell viability [32] [%]	cell viability [33] [%]
C[C@@H](NCc1cc2ccccc2[nH]1)c1cccc2ccccc12	88.5	88.8	93.4	93	86.8	97	95.5	97.7	90	93.4	90.2	89.1	90.2	87.5	95.9	92.9	91.3	94.8	88	89.8	88.8	92.2	84.1	86.6	83.2	91.4	77.3	84.7	85.5	92.6	88.5	90.7	89.5
O=P1(N(CCCl)CCCl)NCCCO1 (configuration not stated)	112	113	115	113	106	109	101	106	98.1	16.5	6.1	112	113	109	113	108	113	112	102	101	51.8	8.07	115	109	106	102	107	117	108	101	101	90	17.3
Oc1cc2c(cc1O)C1c3ccc(O)c(O)c3OCC1(O)C2 (configuration not stated)	96.7	106	108	112	103	113	95.5	118	102	111	112	104	96.6	102	101	101	103	102	110	118	109	108	97.5	93.8	103	102	98.2	107	106	100	105	104	104
CN(c1nccc(=O)[nH]1)C1CCN(c2nc3ccccc3n2Cc2ccc(F)cc2)CC1	108	104	109	110	111	119	118	118	114	112	110	113	110	101	114	124	111	116	109	115	115	123	100	108	109	108	125	113	121	112	123	119	112
N#CC1(c2ccc(NC(=O)c3cccnc3NCc3ccncc3)cc2)CCCC1	120	123	113	116	116	110	108	104	106	77.8	102	119	108	123	107	122	111	113	109	102	110	98.9	118	122	115	109	113	114	103	113	103	96.3	90.8
CC(C)C(=O)Nc1ncc(-c2cc(C(F)F)nn2-c2c(Cl)cccc2Cl)s1	122	122	117	120	126	136	129	131	134	132	63.5																						
CC1(C)Cc2c(sc(NC(=S)NC(=O)c3ccccc3)c2C(=O)O)CO1	99.1	109	107	110	109	115	118	114	101	99.2	101	103	110	110	116	119	118	121	112	110	108	106	103	112	108	110	115	109	126	122	114	105	106
CCc1cccc2c3c([nH]c12)C(CC)(CC(=O)O)OCC3 (configuration not stated)	108	107	110	109	104	105	105	108	99.4	99.2	93.7	104	107	106	103	101	99.9	100	93.1	96.4	96.6	85.7	94.4	98	99.9	103	102	101	98.9	98.1	92.9	94.1	84.8
CC(Cc1ccc(O)c(O)c1)(NN)C(=O)O (configuration not stated)	110	112	107	111	130	114	105	102	100	101	78.5	102	113	122	120	113	111	108	100	112	113	65.3	107	116	115	115	114	109	108	104	110	110	55.7
O=C(O)CCNc1cc(N2CCc3ccccc3CC2)nc(-c2ccccn2)n1	119	116	115	127	114	111	117	112	114	102	88.5	122	119	113	110	114	123	123	128	104	97.8	69.2	116	130	123	126	123	109	115	121	114	102	79.6
CCC(=O)OC1CCC2C3CCC/4=C/C(=O)CC[C@@]4(C)C3CC[C@]12C (some centres not stated)	116	120	126	129	126	127	132	128	129	125	117																						
CN[C@H]1[C@H](O[C@@H]2[C@H](O[C@@H]3[C@@H](O)[C@@H](O)[C@@H](NC(=N)N)[C@@H](O)[C@H]3NC(=N)N)O[C@H](C)[C@@]2(O)C=O)O[C@@H](CO)[C@@H](O)[C@H]1O	117	117	120	108	112	115	110	110	99.9	108	111	108	109	107	112	120	122	102	95.5	94.7	97.8	103	118	115	136	123	112	105	89.3	86	105	104	116
OCCNC1CCCc2c1[nH]c1ccc(-c3ccccc3)cc21 (configuration not stated)	100	107	106	105	110	110	115	108	111	78.4	16.6	103	111	109	108	114	108	114	118	110	73.5	18.2	105	111	113	109	107	114	119	114	111	80.4	28.9
CCCCOc1ccc(CC(=O)NO)cc1	108	108	108	110	111	102	102	105	107	97.5	67.7	115	115	102	116	109	111	105	101	100	96.4	59.1	114	109	113	108	110	104	108	106	98.3	92.4	59.2
CN1C2=CC(=O)/C(=N/NC(N)=O)C=C2CC1S(=O)(=O)[O-].[Na+] (configuration not stated)	105	112	112	112	108	113	115	115	110	112	112	103	112	108	112	109	118	118	115	113	112	106	105	108	105	108	111	113	123	112	110	117	110
C=CC(=O)Nc1cccc(Oc2nc(Nc3ccc(N4CCN(C)CC4)cc3OC)ncc2Cl)c1	75	79.3	78.4	84.9	84.7	86.3	83	79.6	76.5	70.6	52.2	68	76	76.1	79.5	80.9	83.7	80.1	82.1	66	58.3	50.3	73	89.4	82.8	79.9	81.6	80.9	74.6	83.3	70.6	64.7	49.5
CC[C@H](NC(C)C)[C@H](O)c1ccc(O)c2[nH]c(=O)ccc12	108	111	102	106	99	102	101	105	102	92.1	97.8	102	106	104	101	96.9	107	108	94.3	95.2	94.1	92.6	91.4	98.2	97.6	95	100	97.1	98.2	89.9	93.5	95.1	93.8
